Reference: US9617221B2, “Kinase modulators for the treatment of cancer” (Synovo GmbH, priority 2010, dated 2017)
Several values for one entry are separate records, joined by “and”; a condition that tells them apart may be missing. Identical values can stand only once.

Tests used:
Type in all cases: cell-based, mice
IL-10 [1] = assay: IL-10 production by LPS-stimulated murine peritoneal macrophage (ELISA); details: for IL-10 by ELISA, % of solvent treated control: murine peritoneal macrophage; for IL-10 (LPS, Macrophages), amount of cytokine: 10 μM, 72 h
Procedure: (§1) Peritoneal macrophage or splenocytes (lymphocytes and macrophage) were harvested from donor mice using standard techniques. Cells were placed in culture and stimulated with either LPS (10 μg/mL) or concanavalin A 5 μg/mL (Sigma Chemical Co., St Louis, Mo.) in RPMI-1640 medium supplemented with antibiotics, […] 2-mercaptoethanol, 10 mm HEPES buffer and 10% fetal calf serum (FCS) (see Holan et al., 1985) to stimulate macrophage and T-cells respectively. Compounds were added from DMSO stock solutions to a final concentration of 50 μM or less with DMSO not exceeding 1% of total volume. After 72 h, cell supernatant was recovered and the cytokine levels were estimated by ELISA. The effect of compounds on cytokine production was recorded as follows: […]

IFN-g = IFN-g production by ConA-stimulated T cells; details: 10 μM, 72 h
Procedure: as §1

NO = NO production by LPS-stimulated macrophages; details: 10 μM, 72 h
IL-6 = IL-6 production by LPS-stimulated macrophages; details: 10 μM, 72 h
Procedure: as §1

T cells = assay: Proliferation of Con A-stimulated T cells; details: 10 μM
Procedure: as §1

IL-1β = IL-1β production by LPS-stimulated macrophages; details: 5 μM, 72 h
Procedure: as §1

IL-10 [2] = assay: IL-10 production by ConA-stimulated T cells; details: 10 μM, 72 h
Procedure: as §1

IL-2 = IL-2 production by ConA-stimulated T cells; details: 10 μM, 72 h
Procedure: as §1

IL-4 = IL-4 production, Con A, spleen; details: 5 μM, 72 h
Procedure: as §1

B cells = assay: Proliferation of LPS-stimulated B cells; details: 10 μM

With CC[C@H]1OC(=O)[C@H](C)[C@@H](OC2CC(C)(OC)C(O)C(C)O2)[C@H](C)[C@@H](OC2OC(C)CC(NC)C2O)C(C)(O)C[C@@H](C)C(=O)[C@H](C)[C@@H](O)C1(C)O (some centres unmarked) [Compound 16, 3′-desmethyl erythromycin] the “IL-10 by ELISA, % of solvent treated control” value (“IL-10 by ELISA, %” below) (IL-10 [1]; 1 μM inhibitor in medium) was 117 % of solvent treated control, the “IL-10 by ELISA, %” value (IL-10 [1]; 5 μM inhibitor in medium) was 99 % of solvent treated control and the “IL-10 by ELISA, %” value (IL-10 [1]; 20 μM inhibitor in medium) was 8 % of solvent treated control. For the same molecule, the “IFN-g (ConA, T cells), amount of cytokine” value (shortened to “IFN-g (ConA, T cells)”) (IFN-g) was 2 % of control treated with solvent alone, the “NO (LPS, Macrophages), % of control treated with solvent alone” value (from here on “NO (LPS, Macrophages), %”) (NO) was 63 % of control treated with solvent alone and the “IL-6 (LPS, Macrophages), amount of cytokine” value (from here on “IL-6 (LPS, Macrophages)”) (IL-6) was 85 % of control treated with solvent alone. For the same molecule, the “Proliferation (Con A, T cells)” value (T cells) was 0 % of control treated with solvent alone and the “IL-1β (Macrophages, LPS), amount of cytokine” value (“IL-1β (Macrophages, LPS)” for short) (IL-1β) was 85 % of control treated with solvent alone.

In the case of CC[C@H]1OC(=O)[C@H](C)[C@@H](O[C@H]2C[C@@](C)(OC)[C@@H](O)[C@H](C)O2)[C@H](C)[C@@H](O[C@@H]2O[C@H](C)C[C@H](N(C)CC3CO3)[C@H]2O)[C@](C)(O)C[C@@H](C)C(=O)[C@H](C)[C@@H](O)[C@]1(C)O (some centres unmarked) [Compound 18, 3′-desmethyl-3′-oxiranylmethyl erythromycin], the “IL-10 by ELISA, %” value (IL-10 [1]; 1 μM inhibitor in medium) is reported as 124 % of solvent treated control, the “IL-10 by ELISA, %” value (IL-10 [1]; 5 μM inhibitor in medium) is reported as 109 % of solvent treated control and the “IL-10 by ELISA, %” value (IL-10 [1]; 10 μM inhibitor in medium) is reported as 109 % of solvent treated control. The “IL-10 (LPS, Macrophages), amount of cytokine” value (shortened to “IL-10 (LPS, Macrophages)”) (IL-10 [1]) was 110 % of control treated with solvent alone and 108 % of control treated with solvent alone, the “IL-10 by ELISA, %” value (IL-10 [1]; 20 μM inhibitor in medium) was 57 % of solvent treated control and the “NO (LPS, Macrophages), %” value (NO) was 47 % of control treated with solvent alone and 54 % of control treated with solvent alone and 65 % of control treated with solvent alone. The “IL-6 (LPS, Macrophages)” value (IL-6) was 90 % of control treated with solvent alone and 109 % of control treated with solvent alone and 106 % of control treated with solvent alone, the “IL-10 (ConA, T cells), amount of cytokine” value (from here on “IL-10 (ConA, T cells)”) (IL-10 [2]) was 38 % of control treated with solvent alone and 70 % of control treated with solvent alone and the “IL-1β (Macrophages, LPS)” value (IL-1β) was 104 % of control treated with solvent alone and 81 % of control treated with solvent alone and 70 % of control treated with solvent alone. For the same molecule, the “IL-2 (ConA, T cells), amount of cytokine” value (IL-2) was 52 % of control treated with solvent alone and 86 % of control treated with solvent alone and the “IL-4 (Con A, spleen), amount of cytokine” value (IL-4) was 91 % of control treated with solvent alone and 84 % of control treated with solvent alone.

CC[C@H]1OC(=O)[C@H](C)[C@@H](O[C@H]2C[C@@](C)(OC)[C@@H](O)[C@H](C)O2)[C@H](C)[C@@H](O[C@@H]2O[C@H](C)C[C@H](N(C)CC(O)CSc3nc(-c4ccc(F)cc4)c(-c4ccncc4)[nH]3)[C@H]2O)[C@](C)(O)C[C@@H](C)CN(C)[C@H](C)[C@@H](O)[C@]1(C)O (some centres unmarked) [Compound 20] was tested, and the “Proliferation (LPS, B cells)” value (B cells) was −1 % of control treated with solvent alone, the “IL-10 by ELISA, %” value (IL-10 [1]; 1.25 μM inhibitor in medium) was −11 % of solvent treated control and the “IL-10 by ELISA, %” value (IL-10 [1]; 5 μM inhibitor in medium) was −12 % of solvent treated control. The “IL-10 by ELISA, %” value (IL-10 [1]; 20 μM inhibitor in medium) was −12 % of solvent treated control, the “Proliferation (Con A, T cells)” value (T cells) was 0 % of control treated with solvent alone and the “IL-1β (Macrophages, LPS)” value (IL-1β) was 34 % of control treated with solvent alone. For the same molecule, the “IL-4 (Con A, spleen), amount of cytokine” value (IL-4) was −5 % of control treated with solvent alone.

CC[C@H]1OC(=O)[C@H](C)[C@@H](O[C@H]2C[C@@](C)(OC)[C@@H](O)[C@H](C)O2)[C@H](C)[C@@H](O[C@@H]2O[C@H](C)C[C@H](N(C)CC(O)CSc3nc(-c4ccc(F)cc4)c(-c4ccncc4)[nH]3)[C@H]2O)[C@](C)(O)C[C@@H](C)C(=O)[C@H](C)[C@@H](O)[C@]1(C)O (some centres unmarked) [Compound 21] was tested, and the “IL-10 by ELISA, %” value (IL-10 [1]; 0.31 μM inhibitor in medium) was 132 % of solvent treated control, the “IL-10 by ELISA, %” value (IL-10 [1]; 1.25 μM inhibitor in medium) was 95 % of solvent treated control and the “IL-10 by ELISA, %” value (IL-10 [1]; 5 μM inhibitor in medium) was 1 % of solvent treated control. For the same molecule, the “IL-10 by ELISA, %” value (IL-10 [1]; 10 μM inhibitor in medium) was −13 % of solvent treated control, the “IL-10 by ELISA, %” value (IL-10 [1]; 20 μM inhibitor in medium) was −8 % of solvent treated control and the “IFN-g (ConA, T cells)” value (IFN-g) was 0 % of control treated with solvent alone. For the same molecule, the “IL-6 (LPS, Macrophages)” value (IL-6) was 101 % of control treated with solvent alone and the “IL-1β (Macrophages, LPS)” value (IL-1β) was 101 % of control treated with solvent alone and 143 % of control treated with solvent alone.

CC[C@H]1OC(=O)[C@H](C)[C@@H](O)[C@H](C)[C@@H](O[C@@H]2O[C@H](C)C[C@H](N(C)CC(O)CSc3nc(-c4ccc(F)cc4)c(-c4ccncc4)[nH]3)[C@H]2O)[C@](C)(O)C[C@@H](C)CN(C)[C@H](C)[C@@H](O)[C@]1(C)O (some centres unmarked) [Compound 22] was tested, and the “IL-10 by ELISA, %” value (IL-10 [1]; 0.31 μM inhibitor in medium) was 103 % of solvent treated control, the “IL-10 by ELISA, %” value (IL-10 [1]; 1.25 μM inhibitor in medium) was 86 % of solvent treated control and the “IL-10 by ELISA, %” value (IL-10 [1]; 5 μM inhibitor in medium) was 43 % of solvent treated control. The “IL-10 by ELISA, %” value (IL-10 [1]; 10 μM inhibitor in medium) was 13 % of solvent treated control, the “IL-10 (LPS, Macrophages)” value (IL-10 [1]) was 13 % of control treated with solvent alone and the “IL-10 by ELISA, %” value (IL-10 [1]; 20 μM inhibitor in medium) was −3 % of solvent treated control. For the same molecule, the “IFN-g (ConA, T cells)” value (IFN-g) was 41 % of control treated with solvent alone, the “NO (LPS, Macrophages), %” value (NO) was 69 % of control treated with solvent alone and the “IL-6 (LPS, Macrophages)” value (IL-6) was 116 % of control treated with solvent alone. For the same molecule, the “IL-10 (ConA, T cells)” value (IL-10 [2]) was 144 % of control treated with solvent alone, the “Proliferation (Con A, T cells)” value (T cells) was 10 % of control treated with solvent alone and the “IL-1β (Macrophages, LPS)” value (IL-1β) was 90 % of control treated with solvent alone and 106 % of control treated with solvent alone. For the same molecule, the “IL-2 (ConA, T cells), amount of cytokine” value (IL-2) was 29 % of control treated with solvent alone and the “IL-4 (Con A, spleen), amount of cytokine” value (IL-4) was 237 % of control treated with solvent alone and 407 % of control treated with solvent alone.

CC[C@H]1OC(=O)[C@H](C)[C@@H](O[C@H]2C[C@@](C)(OC)[C@@H](O)[C@H](C)O2)[C@H](C)[C@@H](O[C@@H]2O[C@H](C)C[C@H](N(C)CCCC(=O)OCC(O)COc3cccc(C(=O)c4cnn(-c5ccc(F)cc5)c4N)c3)[C@H]2O)[C@](C)(O)C[C@@H](C)CN(C)[C@H](C)[C@@H](O)[C@]1(C)O (some centres unmarked) [Compound 43h] was tested, and the “IL-10 by ELISA, %” value (IL-10 [1]; 1.25 μM inhibitor in medium) was 68 % of solvent treated control, the “IL-10 by ELISA, %” value (IL-10 [1]; 5 μM inhibitor in medium) was 52 % of solvent treated control and the “IL-10 by ELISA, %” value (IL-10 [1]; 20 μM inhibitor in medium) was −11 % of solvent treated control. The “IL-4 (Con A, spleen), amount of cytokine” value (IL-4) was 280 % of control treated with solvent alone.

With CC[C@H]1OC(=O)[C@H](C)[C@@H](O[C@H]2C[C@@](C)(OC)[C@@H](O)[C@H](C)O2)[C@H](C)[C@@H](O[C@@H]2O[C@H](C)C[C@H](N(C)CCCC(=O)OCC(O)CSc3nc(-c4ccc(F)cc4)c(-c4ccnc(NC(C)c5ccccc5)c4)[nH]3)[C@H]2O)[C@](C)(O)C[C@@H](C)CN(C)[C@H](C)[C@@H](O)[C@]1(C)O (some centres unmarked) [Compound 43i] the “IL-10 by ELISA, %” value (IL-10 [1]; 2 μM inhibitor in medium) was 25 % of solvent treated control, the “IL-10 by ELISA, %” value (IL-10 [1]; 10 μM inhibitor in medium) was 3 % of solvent treated control and the “IL-10 by ELISA, %” value (IL-10 [1]; 50 μM inhibitor in medium) was 0 % of solvent treated control. The “IL-6 (LPS, Macrophages)” value (IL-6) was 33 % of control treated with solvent alone and 32 % of control treated with solvent alone and the “IL-4 (Con A, spleen), amount of cytokine” value (IL-4) was 8 % of control treated with solvent alone.

CC[C@H]1OC(=O)[C@H](C)[C@@H](O[C@H]2C[C@@](C)(OC)[C@@H](O)[C@H](C)O2)[C@H](C)[C@@H](O[C@@H]2O[C@H](C)C[C@H](N(C)CCCCCC(=O)OCCSc3nc(-c4ccc(F)cc4)c(-c4ccnc(NC(C)C)c4)[nH]3)[C@H]2O)[C@](C)(O)C[C@@H](C)CN(C)[C@H](C)[C@@H](O)[C@]1(C)O [Compound 43k] was tested, and the “Proliferation (LPS, B cells)” value (B cells) was −8 % of control treated with solvent alone, the “IL-10 by ELISA, %” value (IL-10 [1]; 2 μM inhibitor in medium) was −6 % of solvent treated control and the “IL-10 by ELISA, %” value (IL-10 [1]; 10 μM inhibitor in medium) was −8 % of solvent treated control. The “IL-10 (LPS, Macrophages)” value (IL-10 [1]) was −8 % of control treated with solvent alone, the “IL-10 by ELISA, %” value (IL-10 [1]; 50 μM inhibitor in medium) was −9 % of solvent treated control and the “IFN-g (ConA, T cells)” value (IFN-g) was 0 % of control treated with solvent alone. The “NO (LPS, Macrophages), %” value (NO) was −1 % of control treated with solvent alone, the “IL-6 (LPS, Macrophages)” value (IL-6) was 22 % of control treated with solvent alone and the “IL-10 (ConA, T cells)” value (IL-10 [2]) was 0 % of control treated with solvent alone. The “Proliferation (Con A, T cells)” value (T cells) was −1 % of control treated with solvent alone and the “IL-2 (ConA, T cells), amount of cytokine” value (IL-2) was 0 % of control treated with solvent alone.
